Three compounds from patent US20240425583A1, “METHODS AND COMPOSITIONS RELATED TO MCL-1 AND BIM HETERODIMER ANTIBODIES” (priority 2021, published 2024) can be followed below.

The subject of assay [1] is Mcl-1:Bim complex. Briefly: Heterodimer to monomer ratio by flow cytometry in SET2 cells (FIG. 18). Format: cell-based. The settings on record: A1155463 treated SET2 cells, detected with F05. On the procedure: (§1) FIG. 18 is a graph showing a ratio of measured heterodimer to monomer in Bcl-xL dependent cell lines: Bcl-2:Bim, Mcl-1:Bim, and Bcl-xL:Bim. Bcl-xL:Bim shifts against Bcl-xL and Mcl-1 upon treatment. In this experiment, a shift away from the complex is detected when the sample is treated with BCLXL targeted BH3 mimetic (A1155463).
(Flow cytometry measures light scatter and fluorescence of single cells or particles in a stream.)

The next assay concerns the target BCLXL: BIM (Homo sapiens, UniProt Q07817). Kind of assay: PRIMAB intra-cellular immunofluorescent staining and flow cytometry in U266B1 cells (FIG. 19). The settings on record: BCLXL primed U266B1 cells, HSBXB PRIMAB.
Assay [2] concerns Mcl-1:Bim complex. Kind of assay: Heterodimer to monomer ratio by flow cytometry in UKE-1 cells (FIG. 18). Format: cell-based. Conditions: A1155463 treated UKE-1 cells, detected with F05. As to the method:
as §1

For assay [3], the target named is T1, BCL2:BIM complex (Homo sapiens, UniProt P10415). Briefly: PRIMAB intra-cellular immunofluorescent staining and flow cytometry in U2932 cells (FIG. 19). Details: endogenous in cells; host or cells: U2932. Format: cell-based. Conditions: BCL2 primed U2932 cells. An excerpt:
These shifts match BH3 mimetic selectivity.

Assay [4] addresses T1, BCL2:BIM complex. Briefly: Flow cytometry of BH3 mimetic treated cells, heterodimer-specific vs monomer antibodies (FIG. 17). Details: endogenous in cells. Conditions: detected with 2H3 (BCL2:BIM) and F05 (MCL-1:BIM). Format: cell-based. On the procedure: This shift is detected by MCL-1:BIM specific antibody (F05) relative to total MCL-1 in the cell. In this experiment, cells are treated with specific BCL2 targeted BH3 mimetic (AZD4320, Medchemexpress), fixed, permeabilized, and stained with heterodimer-specific antibodies and standard antibodies against monomers. Signals are measured on FLOW Cytometer, show relative signal and the data shown in FIG. 17 is a ratio of complex/monomer signal. FIG. 17 is a graph showing a BCL2:BIM complex specific antibody that tracts with complex disruption by a BH3 mimetic.

T1 sequence (P10415 whole entry, one chain of several): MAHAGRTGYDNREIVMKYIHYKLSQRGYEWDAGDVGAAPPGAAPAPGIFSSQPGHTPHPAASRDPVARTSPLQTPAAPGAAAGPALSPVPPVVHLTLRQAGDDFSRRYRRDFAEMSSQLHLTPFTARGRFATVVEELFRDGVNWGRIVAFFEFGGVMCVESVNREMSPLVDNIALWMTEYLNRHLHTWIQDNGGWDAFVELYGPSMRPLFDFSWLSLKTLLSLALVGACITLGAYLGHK
BCLXL: BIM, sequence (Q07817 whole entry): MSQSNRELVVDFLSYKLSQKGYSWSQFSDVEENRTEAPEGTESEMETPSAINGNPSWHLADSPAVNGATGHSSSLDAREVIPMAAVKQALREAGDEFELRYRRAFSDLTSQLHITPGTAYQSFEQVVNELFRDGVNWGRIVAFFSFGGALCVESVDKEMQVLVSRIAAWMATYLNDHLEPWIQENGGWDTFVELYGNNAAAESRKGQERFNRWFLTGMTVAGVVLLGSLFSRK

Take `CN(C)CC#Cc1ccc(OCCCc2sc(N3CCc4cccc(C(=O)Nc5nc6ccccc6s5)c4C3)nc2C(=O)O)c(F)c1` [A1155463]: the “ratio of measured heterodimer to monomer” value in the assay with Mcl-1:Bim complex [1] was “shift and “priming” to MCL1:BIM complex”; in the assay on Mcl-1:Bim complex [2] it was “shift and “priming” to MCL1:BIM complex”. At BCLXL: BIM, the “priming complex shift by PRIMAB readout” value is “BCLXL: BIM shift”.
As for `CC1(C)CCC(CN2CCN(c3ccc(C(=O)NS(=O)(=O)c4ccc(NCC5CCOCC5)c([N+](=O)[O-])c4)c(Oc4cnc5[nH]ccc5c4)c3)CC2)=C(c2ccc(Cl)cc2)C1` [ABT-199], the “priming complex shift by PRIMAB readout” value on BCL2:BIM complex [3] is “disruption of BCL2: BIM complex”.
For the compound `CN(CCO)CC[C@H](CSc1ccccc1)Nc1ccc(S(=O)(=O)NC(=O)c2ccc(N3CCC([C@@H](O)c4ccccc4-c4ccc(Cl)cc4)CC3)cc2)cc1S(=O)(=O)C(F)(F)F` [AZD4320], the “ratio of complex/monomer signal” value at BCL2:BIM complex [4] was “shift from the BCL2:BIM complex to the MCL-1:BIM complex”.
